Experimental data as given in PubChem BioAssay AID977628 (Broad Institute, 2014).
Results filed as inconclusive are left out. Active and inactive are the calls of the source.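 The calls were made as follows: active = compound lowering the normal-ribosome reporter at least twice as much as the humanized-ribosome reporter, growth loss under a set limit; inconclusive = no clear call, values can overlap the other calls; inactive = the rest.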

system: E. coli WT GFP strain growth, fluorescence, 24 h; test: E. coli growth inhibition, wild-type GFP versus h24 humanized RFP strain, dose response, h24 mutant RFP vs wild-type GFP, cherry-pick (AID 977628); details: not given

SMILES	AC50
CSC1=NCCN1C(=O)Cc1ccc(-c2ccccc2)cc1	> 100 µM (inactive)
O=C(O)c1ccccc1Nc1cc(Cl)c2nonc2c1[N+](=O)[O-]	> 100 µM (inactive)
O=C(CN1c2ccccc2S(=O)(=O)c2ccccc21)NCc1ccc(F)cc1	> 100 µM (inactive)
CC1CCCCN1CC(O)COCCC12CC3CC(CC(C3)C1)C2 (configuration not stated)	> 100 µM (inactive)
Cc1cc(C(=O)Nc2cccc3c2O[C@H](CN(C)S(=O)(=O)c2ccc(Cl)cc2)[C@H](C)CN([C@H](C)CO)C3=O)n(C)n1	> 100 µM (inactive)
COC(=O)c1sccc1NC(=O)Cn1nnc(-c2ccccc2C)n1	> 100 µM (inactive)
O=c1[nH]c(C2CCCN(S(=O)(=O)c3ccccc3Cl)C2)nc2c1nnn2Cc1ccc2c(c1)OCCO2 (configuration not stated)	> 100 µM (inactive)
CCCn1nnnc1NCc1ccccc1OCc1cccs1	> 100 µM (inactive)
CCOC(=O)c1cnc2c(cnn2C)c1NCc1ccc(OC)cc1	> 100 µM (inactive)
CC(Nc1ncnc2ccccc12)c1ccccc1 (configuration not stated)	> 100 µM (inactive)
C=CCn1c(C)cc(C(=O)COC(=O)CNC(=O)c2ccccc2)c1C	> 100 µM (inactive)
COc1ccc(OC)c(N(CC(=O)Nc2ccccc2F)S(=O)(=O)c2ccccc2)c1	> 100 µM (inactive)
O=C(CN1CCCCC1)Nc1ccccc1-c1ccccc1	> 100 µM (inactive)
COc1ccc(NS(=O)(=O)c2cc(NC(=O)CNC(=O)c3cccc(OC)c3)ccc2C)cc1	> 100 µM (inactive)
O=C(O)CCN(Cc1ccccc1)S(=O)(=O)c1ccccc1Cl	> 100 µM (inactive)
CCn1nc(C(=O)OCc2cccc(S(=O)(=O)N(C)C)c2)c2ccccc2c1=O	> 100 µM (inactive)
COc1ccc(-c2csc3ncn(-c4ccc(C)cc4)c(=O)c23)cc1OC	> 100 µM (inactive)
O=C(CCc1nc2ccccc2s1)OCC(=O)c1ccc[nH]1	> 100 µM (inactive)
COCCNc1cc(-c2ccccc2)nc2cc(-c3cccc(F)c3)nn12	> 100 µM (inactive)
O=S1(=O)N[C@H](Cc2ccccc2)COc2cccc(N3CCC[C@H]3CO)c21	> 100 µM (inactive)
O=C(c1cc(COc2c(F)cccc2F)on1)N1C[C@H]2CC[C@H]1C2	> 100 µM (inactive)

SMILES	AC50
CCCCNc1ccc2c(c1)OC[C@@H](Cc1ccccc1)NS2(=O)=O	> 100 µM (inactive)
CCCCCCCNC(=O)c1ccc(N2CCC3(CC2)OCCO3)c([N+](=O)[O-])c1	> 100 µM (inactive)
COc1ccc(OC)c(-c2nn(-c3ccccc3)cc2C(=O)N2CCc3ccccc3C2)c1	> 100 µM (inactive)
O=C(O)CSc1nnc(-c2ccc(Cl)cc2Cl)n1-c1ccc(Br)cc1	> 100 µM (inactive)
Cc1cc(C)c(S(=O)(=O)NCCOc2ccccc2)c(C)c1-n1cnnn1	> 100 µM (inactive)
O=C(O)C1CCCCC1C(=O)Nc1ccc(OCc2ccccc2)cc1 (configuration not stated)	> 100 µM (inactive)
CCOc1ccc2nc(NC(=O)CSc3nc(SC)ns3)sc2c1	> 100 µM (inactive)
O=C(O)c1nn2c(C(F)(F)F)cc(-c3cccs3)nc2c1Cl	> 100 µM (inactive)
COc1ccc2[nH]c3c(=O)n(CCCCC(=O)NCCC(C)C)c(=S)[nH]c3c2c1	> 100 µM (inactive)
Cc1ccc(C2NC(=O)c3[nH]nc(-c4ccccc4)c32)cc1 (configuration not stated)	> 100 µM (inactive)
CSc1ccccc1NC(=O)CN(c1cccc(C)c1)S(C)(=O)=O	> 100 µM (inactive)
CCn1nc(C)cc1C(=O)N1CCCC(C(=O)c2ccc3ccccc3c2)C1 (configuration not stated)	> 100 µM (inactive)
COc1cccc(NC(=O)C2CCC(CNS(=O)(=O)c3cccs3)CC2)c1 (configuration not stated)	> 100 µM (inactive)
COc1ccc(CNc2cc([N+](=O)[O-])ccc2OC)cc1	> 100 µM (inactive)
COc1ccc(-c2cc(C(=O)N(C)CCc3ccc(OC)c(OC)c3)c3ccccc3n2)cc1	> 100 µM (inactive)
O=C(Nc1cc(F)ccc1F)N1CCCCN2[C@@H](CO)[C@H](c3ccc(-c4ccncc4)cc3)[C@@H]2C1	> 100 µM (inactive)
CC1C=Cc2ccccc2N1C(=O)c1ccccc1 (configuration not stated)	> 100 µM (inactive)
CCC(=O)c1ccc(OCC(=O)Nc2nc(C)cs2)cc1	> 100 µM (inactive)
COc1cccc(NC(=O)c2ccc(-c3ccc([N+](=O)[O-])cc3)o2)c1	> 100 µM (inactive)
CC1=Nc2cc(C(=O)NCC3CCCO3)ccc2Sc2ccc(Br)cc21 (configuration not stated)	> 100 µM (inactive)
Cc1cc(Br)ccc1SCC(=O)OCC(=O)NCc1ccco1	> 100 µM (inactive)

same assay, conditions: measured here: WT GFP, test 1

SMILES	AC50 [µM]
COc1ccc2[nH]c3c(=O)n(CCCCC(=O)NCCC(C)C)c(=S)[nH]c3c2c1	> 100

system: E. coli mixed WT/h24 culture total growth, OD600, 24 h; test: as above; details: not given

SMILES	AC50 [µM]
Cc1ccc(NC(=O)c2ccccc2F)c(NC(=O)c2ccccc2F)c1	> 100
COc1ccccc1-c1noc2ncnc(Nc3ccccc3C)c12	> 100
Cc1cccc(C)c1NC(=O)C1(C)CSCC(=O)N1CCOc1ccccc1 (configuration not stated)	> 100
CNC(=O)c1ccsc1NC(=O)c1ccc(S(=O)(=O)N2CCc3ccccc32)cc1	> 100
CC(=O)c1ccc(Sc2ccccc2N)c([N+](=O)[O-])c1	> 100
CC(C)n1nnnc1C1c2ccccc2C(=O)N1CCOc1ccccc1 (configuration not stated)	> 100
Nc1ccc2nc(-c3ccc(Cl)cc3)[nH]c2c1	> 100
Cc1ccccc1SCC(=O)OCC(=O)Nc1sccc1C(N)=O	> 100
Nc1ccccc1Sc1c[nH]c2ccccc12	> 100
